Measured values published in patent publication US20220273829A1, “RADIOLABELED SUGARS FOR IMAGING OF FUNGAL INFECTIONS” (THE UNITED STATES OF AMERICA, as represented by the …, priority 2019, published 2022).
“Also recorded” adds a separate entry of the source. Where two headings read alike, the source gives them in different places.

Experiments:
[1] = test system: bacteria; details: gram negative and gram positive; Ordonez et al. 2017; cited from earlier work
[2] = test system: J774 macrophages; details: Ordonez et al. 2017; cited from earlier work
[3] = test system: P. aeruginosa; details: Ordonez et al. 2017; cited from earlier work
[4] = test system: A. fumigatus; test: In vitro uptake of radiolabeled sugar in fungal cultures (retained radioactivity after incubation and washing); type: cell-based, Aspergillus fumigatus
Protocol: (§1) The inventors identified sugars and other molecules involved in the metabolic pathways of clinically-relevant fungal infections, and generated radiolabeled versions (3H or 14C) that were tested for in vitro uptake in bacteria (gram-negative, gram-positive, Pseudomonas aeruginosa), macrophages (J774 cell line) and m clinically-relevant fungal strains including Aspergillus, Rhizomucor, Cryptococcus and Candida albicans. Organisms and cells were exposed to the radiolabeled compounds and the in vitro uptake was measured (retained radioactivity after incubation and washing of the cultures measured using a beta counter). […] For the biodistribution and autoradiography studies showing specific uptake of the radioactive molecules by fungal-infected animals (i.e., retained radioactivity in the lungs in the infected animals but not in the control animals), the ligand(s) specific for each type of fungi was radiolabeled with 18F or other PET isotopes. Using the radiolabeled ligand(s), live PET imaging is performed on infected mice using a microPET/CT scanner. […] The images are reconstructed and analyzed using special software. […]
(§2) In vitro studies using ^3H-cellobiose were performed with measurement of retained radioactivity after incubation and washing of the cultures using a beta counter.

[5] = test system: bacteria; test: In vitro uptake of radiolabeled sugar in bacterial cultures; type: cell-based, E. coli, S. aureus; details: FIGS. 1B-1C
Protocol: The inventors identified sugars and other molecules involved in the metabolic pathways of clinically-relevant fungal infections, and generated radiolabeled versions (3H or 14C) that were tested for in vitro uptake in bacteria (gram-negative, gram-positive, Pseudomonas aeruginosa), macrophages (J774 cell line) and m clinically-relevant fungal strains including Aspergillus, Rhizomucor, Cryptococcus and Candida albicans. Organisms and cells were exposed to the radiolabeled compounds and the in vitro uptake was measured (retained radioactivity after incubation and washing of the cultures measured using a beta counter). […] For the biodistribution and autoradiography studies showing specific uptake of the radioactive molecules by fungal-infected animals (i.e., retained radioactivity in the lungs in the infected animals but not in the control animals), the ligand(s) specific for each type of fungi was radiolabeled with 18F or other PET isotopes. Using the radiolabeled ligand(s), live PET imaging is performed on infected mice using a microPET/CT scanner. This is done by injecting the radioactive ligand intravenously through the tail vein and then positioning the animals inside the microPET/CT gantry and obtaining CT scan images as well as PET emission data. The images are reconstructed and analyzed using special software. […]

[6] = test system: J774 macrophages; test: In vitro uptake of radiolabeled sugar in macrophages / mammalian cells; type: cell-based; details: J774 cell line; FIG. 1D, FIG. 4B
Protocol: as §1, §2

[7] = test system: A. fumigatus-infected lungs (nasopharyngeal model); test: Organ biodistribution after injection of radiolabeled sugar in Aspergillus-infected mice; type: in vivo, mouse; details: infected vs uninfected controls / sterile lung inflammation, FIG. 2, FIG. 4C
Protocol: as §1, with “isotopes.” for “isotopes. Using the radiolabeled ligand(s), live PET imaging is performed on infected mice using a microPET/CT scanner.”
ex vivo experiments were performed, including biodistribution (injecting the animals with radiolabeled molecules followed by euthanasia, collection of organs and measurement of radioactivity) and autoradiography (sectioning of lung tissues from injected animals to measure residual radioactivity).

[8] = test system: A. fumigatus infected mice; test: Autoradiography of tissue sections from injected infected mice; type: in vivo, mouse; details: lung sections; nasopharyngeal inoculation model; FIG. 1F, FIG. 5A
Protocol: as §1, with “isotopes.” for “isotopes. Using the radiolabeled ligand(s), live PET imaging is performed on infected mice using a microPET/CT scanner.”
ex vivo experiments were performed, including biodistribution (injecting the animals with radiolabeled molecules followed by euthanasia, collection of organs and measurement of radioactivity) and autoradiography (sectioning of lung tissues from injected animals to measure residual radioactivity). […]

[9] = test system: pulmonary aspergillosis (Aspergillus lung infection); type: in vivo, mouse; details: for PET/CT uptake (SUV) in lungs of infected mice: 60-minute dynamic PET/CT, pulmonary aspergillosis model vs controls and poly (I:C) treated mice
Protocol: The inventors identified sugars and other molecules involved in the metabolic pathways of clinically-relevant fungal infections, and generated radiolabeled versions (3H or 14C) that were tested for in vitro uptake in bacteria (gram-negative, gram-positive, Pseudomonas aeruginosa), macrophages (J774 cell line) and m clinically-relevant fungal strains including Aspergillus, Rhizomucor, Cryptococcus and Candida albicans. Organisms and cells were exposed to the radiolabeled compounds and the in vitro uptake was measured (retained radioactivity after incubation and washing of the cultures measured using a beta counter). […] For the biodistribution and autoradiography studies showing specific uptake of the radioactive molecules by fungal-infected animals (i.e., retained radioactivity in the lungs in the infected animals but not in the control animals), the ligand(s) specific for each type of fungi was radiolabeled with 18F or other PET isotopes. Using the radiolabeled ligand(s), live PET imaging is performed on infected mice using a microPET/CT scanner. This is done by injecting the radioactive ligand intravenously through the tail vein and then positioning the animals inside the microPET/CT gantry and obtaining CT scan images as well as PET emission data. The images are reconstructed and analyzed using special software. To confirm specificity for fungal infection, in vivo uptake of the ligand(s) in animal models of sterile inflammation, as well as models of bacterial infection (gram positive and gram negative bacteria) are performed.
Three main mouse models were developed: (1) Aspergillus lung infection (nasopharyngeal administration of 30 μl suspension of Aspergillus conidia), (2) Aspergillus hematogenous spread (intravenous administration of 100 μl of fungal suspension via the tail vein) and (3) sterile lung inflammation model (induced by nasopharyngeal administration of 50-100 μg of poly (I:C) suspension in 30 μl of sterile PBS; poly(I:C) is a synthetic double stranded RNA which activates Toll-like receptors-3 (TLR3), thereby inducing signaling via multiple inflammatory pathways).
Standardized uptake values (SUVs) of ^18F-L-rhamnose in infected mice were then measured, and compared to animals with sterile lung inflammation (24 hours following post-pharyngeal poly (I:C) administration) and healthy controls.

C[C@H](O)[C@H](O)[C@@H](O)[C@@H](O)C=O [L-Rhamnose]
L-Rhamnose uptake in bacteria [1]: low | L-Rhamnose uptake in macrophages [2]: very low | L-Rhamnose uptake in P. aeruginosa [3]: very low

C[C@H](O)[C@H](O)[C@@H](O)[C@@H](O)C=O [^3H-L-Rhamnose]
in vitro retention/uptake of 3H-labeled sugar by A. fumigatus ([4]; retained radioactivity after incubation and washing, beta counter, FIG. 1A, FIG. 4A): significant retention | in vitro retention of 3H-L-Rhamnose by bacteria [5]: minimal retention | in vitro retention/uptake of 3H-labeled sugar by macrophages (mammalian cells) [6]: minimal retention | biodistribution: uptake in lungs of infected versus control mice [7]: uptake of ^3H-L-Rhamnose in the lungs of infected animals but not in uninfected controls; also recorded: increased uptake in the lungs of infected compared to control mice and mice with sterile lung inflammation | autoradiography: uptake in lungs of infected mice [8]: accumulation of ^3H-L-Rhamnose in the lungs of infected but not uninfected animals

C[C@H](O)[C@H](O)[C@@H](O)[C@@H]([18F])C=O [^18F-L-rhamnose, 2-deoxy-2-[^18F]fluororhamnose]
in vitro uptake of ^18F-L-rhamnose by A. fumigatus ([4]; live versus heat-killed cultures, FIG. 1E): specifically internalized by live A. fumigatus cultures when compared to heat-killed cultures | PET/CT uptake (SUV) in lungs of infected mice ([9]; FIG. 3A): slight higher uptake in lung lesions compared to controls and poly (I:C) treated mice | PET/CT uptake (SUV) in lungs of infected mice ([9]; FIG. 3A, listed as [^18F]-rhamnose): Increased uptake is seen in the lungs of nasopharyngeally-infected pulmonary IA (AF NP) mice | PET uptake in lungs of control or sterile lung inflammation mice ([9]; control and poly (I:C) mice, averaged 520-3520 seconds post injection, FIG. 3A): no appreciable uptake is seen in the lungs of control or sterile lung (poly (I:C)inflammation mice | washout of the ligand (time activity curve) ([9]; mouse, in vivo): relatively fast washout
